SMILES strings stand for the structures.

The subject of this assay is primary hepatocytes isolated from rats. Kind of assay: Hepatocyte protective effect against substances deriving hepatocyte toxicity (WST-1 viability). It counts as cell-based. The settings on record: Rattus norvegicus, Hepatocyte, doxorubicin, 24-48 h, read-out: EC50, cell protective effects against doxorubicin in hepatocytes. As for the experimental part:
Various endogenous/exogenous attacks on the cells trigger the mechanisms of cell death which is broadly classified into two types, i.e. apoptosis or necrosis. Using these cell death mechanisms, in the present experimental example, primary hepatocytes isolated from rats were treated with drugs which were clinically shown to result in serious side-effects of hepatocyte toxicity or various chemicals which derive cell death, and the compounds synthesized in the Examples were estimated for their hepatocyte protective effects, after 24-48 h. The substances used to derive hepatocyte death include CCl4, ActD, H2O2, doxorubicin, anti-Fas Ab/Actinomycin D, acetaminophen, EtOH, CdCl2, palmitate, stearate, cyclophosphamide, terfenadine, diclofenac, simvastatin, and adefovir. Primary hepatocytes were isolated using the method of Seglen PO (Experimental Cell Research 74 (1972) pp 450-454). Briefly, hepatocytes were isolated according to the two-step collagenase perfusion method, and dead cells were removed by low speed (500 rpm) centrifugation for 10 min using percoll gradient (Kreamer B L etc, In Vitro Cellular & Developmental Biology 22 (1986) pp 201-211). During this step, the viability of cells was maintained 90% or above. The cells were suspended in HepatoZYME media (Gibco BRL), and the number of cells was counted. 1.5×10^4 cells in 100 μl were placed into the collagen-coated 96-well plate (BD biocoat), and adhered on the bottom for 3-4 h.
In order to assess the hepatocyte protective effect, above adhered cells were pretreated with the Example compounds for 30 min. At this time, the concentration of the Example compounds were serially diluted by 2-fold or 3-fold over 5 steps starting from 30 uM, 10 uM or 1 uM depending on the experiments, and the final concentration of DMSO was adjusted to 0.2%. 30 min after the treatment by compounds, cells were treated by the substances deriving hepatocyte death or hepatotoxic drugs at the concentrations indicated in Table 1. After 24-48 h, the viability of cells was determined to estimate the hepatocyte protective effects. The viability of cells was determined using WST-1 (MK-400, […]) method by the absorbance at 440 nm. Hepatocyte protective effects of the Example compounds were represented by “EC50,” which was calculated from measured values. “EC50” herein means the concentration of the compound at which 50% of maximum protective effect is observed in the experiment.
Background: Tetrazolium dyes change colour on reduction, which living cells bring about.
In the case of `CCN(CC)CCn1c(-c2ccccc2)cc2cc(Cl)cc(NC3CCOCC3)c21` [Example 64, (Tetrahydropyran-4-yl)-[5-chloro-1-(2-diethylaminoethyl)-2-phenyl-1H-indol-7-yl]amine], the 50% effective concentration (EC50) – broadly, the concentration at which the effect is half-maximal – is 260 nM. As for `CN(C)c1cc(Cl)cc2cc(-c3ccccc3)n(C)c12` [Example 65, Dimethyl-(5-chloro-1-methyl-2-phenyl-1H-indol-7-yl)amine], the figure is 600 nM. `Clc1cc(NC2CCCC2)c2[nH]c(-c3ccccc3)c(CN3CCOCC3)c2c1` [Example 67, Cyclopentyl-(5-chloro-3-(morpholin-4-yl)methyl-2-phenyl-1H-indol-7-yl)-amine]: the EC50 is under 130 nM.

Regarding `Clc1cc(NC2CCOCC2)c2[nH]c(-c3ccccc3)c(CN3CCOCC3)c2c1` [Example 68, (Tetrahydropyran-4-yl)-(5-chloro-3-(morpholin-4-yl)methyl-2-phenyl-1H-indol-7-yl)-amine], the EC50 turned out to be 320 nM. Take `O=C1CN(Cc2c(-c3ccccc3)[nH]c3c(NC4CCOCC4)cc(Cl)cc23)CCN1` [Example 69, (Tetrahydropyran-4-yl)-(5-chloro-3-(2-oxo-piperazin-4-yl)methyl-2-phenyl-1H-indol-7-yl)-amine]: the half-maximal effective concentration (EC50) stood at 355 nM. For the compound `O=C1CN(Cc2c(-c3ccccc3)[nH]c3c(NC4CCCC4)cc(Cl)cc23)CCN1` [Example 70, Cyclopentyl-(5-chloro-3-(2-oxo-piperazin-4-yl)methyl-2-phenyl-1H-indol-7-yl)-amine], the EC50 was determined as 256 nM.

With `O=C1CN(Cc2c(-c3ccccc3)[nH]c3c(NCC4CCOCC4)cc(Cl)cc23)CCN1` [Example 71, (Tetrahydropyran-4-ylmethyl)-(5-chloro-3-(2-oxo-piperazin-4-yl)methyl-2-phenyl-1H-indol-7-yl)-amine], the EC50 turned out to be 254 nM. For `O=S1(=O)CCN(Cc2cc(NC3CCOCC3)c3[nH]c(-c4ccccc4)c(Br)c3c2)CC1` [Example 72, (Tetrahydropyran-4-yl)-(3-bromo-5-(1,1-dioxo-thiomorpholin-4-yl)methyl-2-phenyl-1H-indol-7-yl)-amine], the EC50 is 60 nM. `O=S1(=O)CCN(Cc2cc(NC3CCCC3)c3[nH]c(-c4ccccc4)c(Br)c3c2)CC1` [Example 73, Cyclopentyl-(3-bromo-5-(1,1-dioxo-thiomorpholin-4-yl)methyl-2-phenyl-1H-indol-7-yl)-amine]: the concentration giving a half-maximal response (EC50) worked out at 120 nM.

On to `O=S1(=O)CCN(Cc2cc(NC3CCOCC3)c3[nH]c(-c4cccc(F)c4)cc3c2)CC1` [Example 75, (Tetrahydropyran-4-yl)-(5-(1,1-dioxo-thiomorpholin-4-yl)methyl-2-(3-fluorophenyl)-1H-indol-7-yl)-amine], for which the EC50 worked out at 120 nM. `CC(C)(C)OC(=O)Nc1ccc(-c2cc3cc(Cl)cc(NC4CCCC4)c3[nH]2)cc1` [Example 78, t-Butyl N-[4-[5-chloro-7-(cyclopentylamino)-1H-indol-2-yl]phenyl]carbamate]: the EC50 is 210 nM. Consider `Clc1cc(NC2CCOCC2)c2[nH]cc(-c3ccccc3)c2c1` [Example 79, (Tetrahydropyran-4-yl)-(5-chloro-3-phenyl-1H-indol-7-yl)-amine], for which the EC50 turned out to be 140 nM. As for `Clc1cc(NC2CCCC2)c2[nH]cc(-c3ccccc3)c2c1` [Example 80, Cyclopentyl-(5-chloro-3-phenyl-1H-indol-7-yl)-amine], the figure is 100 nM; as for `Clc1cc(NCC2CCOCC2)c2[nH]cc(-c3ccccc3)c2c1` [Example 81, (Tetrahydropyran-4-yl)methyl-(5-chloro-3-phenyl-1H-indol-7-yl)-amine], 110 nM; as for `Nc1ccc(-c2cc3cc(Cl)cc(NC4CCCC4)c3[nH]2)cc1` [Example 82, Cyclopentyl-[2-(4-aminophenyl)-5-chloro-1H-indol-7-yl]-amine], 70 nM.

In the case of `CN1CCC(Nc2ccc(-c3cc4cc(Cl)cc(NC5CCCC5)c4[nH]3)cc2)CC1` [Example 83, Cyclopentyl-{5-chloro-2-[4-(1-methyl-piperidin-4-yl)aminophenyl]-1H-indol-7-yl}-amine], the EC50 was 50 nM. `CS(=O)(=O)Nc1ccc(-c2cc3cc(Cl)cc(NC4CCCC4)c3[nH]2)cc1` [Example 84, N-[4-(5-chloro-7-cyclopentylamino-1H-indol-2-yl)-phenyl]methanesulfonamide]: the EC50 came to 90 nM. Take `CC(=O)Nc1ccc(-c2cc3cc(CN4CCS(=O)(=O)CC4)cc(NC4CCCC4)c3[nH]2)cc1` [Example 85, Cyclopentyl-{5-(1,1-dioxo-thiomorpholin-4-yl)methyl-2-[4-(acetyl)aminophenyl]-1H-indol-7-yl}-amine]: the concentration for a half-maximal effect (EC50) was determined as 360 nM. `CC(=O)Nc1ccc(-c2cc3cc(N4CCS(=O)(=O)CC4)cc(NCC4CCOCC4)c3[nH]2)cc1` [Example 87, (Tetrahydropyran-4-yl)methyl-{5-(1,1-dioxo-thiomorpholin-4-yl)-2-[4-(acetyl)aminophenyl]-1H-indol-7-yl}-amine]: the EC50 turned out to be 600 nM. On to `CC(=O)Nc1ccc(-c2cc3cc(N4CCS(=O)(=O)CC4)cc(NC(C4CCOCC4)C4CCOCC4)c3[nH]2)cc1` [Example 88, Di(tetrahydropyran-4-yl)methyl-{5-(1,1-dioxo-thiomorpholin-4-yl)-2-[4-(acetyl)aminophenyl]-1H-indol-7-yl}-amine], for which the EC50 was over 2000 nM. On to `CC(=O)Nc1ccc(-c2cc3cc(N4CCS(=O)(=O)CC4)cc(NC4CCOCC4)c3[nH]2)cc1` [Example 89, (Tetrahydropyran-4-yl)-{5-(1,1-dioxo-thiomorpholin-4-yl)-2-[4-(acetyl)aminophenyl]-1H-indol-7-yl}-amine], for which the half-maximal effective concentration (EC50) turned out to be 300 nM.

On to `Cc1cc(NC2CCNCC2)c2[nH]c(-c3ccccc3)cc2c1` [Example 90, (5-Methyl-2-phenyl-1H-indol-7-yl)-piperidin-4-yl-amine], for which the concentration for a half-maximal effect (EC50) came out at 146 nM.

With `Cc1cc(NC2CCN(S(C)(=O)=O)CC2)c2[nH]c(-c3ccccc3)cc2c1` [Example 91, [1-(Methanesulfonyl)piperidin-4-yl]-(5-methyl-2-phenyl-1H-indol-7-yl)-amine], the concentration for a half-maximal effect (EC50) was determined as 42 nM. For `Cc1cc(NC2CCN(C(=O)CO)CC2)c2[nH]c(-c3ccccc3)cc2c1` [Example 92, 2-Hydroxy-1-[4-(5-methyl-2-phenyl-1H-indol-7-yl)amino-piperidin-1-yl]-ethanone], the concentration for a half-maximal effect (EC50) was determined as 36 nM.

Regarding `Clc1cc(NC2CCNCC2)c2[nH]c(-c3ccccc3)cc2c1` [Example 93, (5-Chloro-2-phenyl-1H-indol-7-yl)-piperidin-4-yl-amine], the EC50 came to 160 nM.

In the case of `O=C(Nc1ccccc1)N1CCC(Nc2cc(Cl)cc3cc(-c4ccccc4)[nH]c23)CC1` [Example 94, 4-(5-Chloro-2-phenyl-1H-indol-7-yl)amino-piperidin-1-yl-carboxylic acid phenylamide], the EC50 is 80 nM. In the case of `CN(C)CC(=O)N1CCC(Nc2cc(Cl)cc3cc(-c4ccccc4)[nH]c23)CC1` [Example 95, 1-[4-(5-Chloro-2-phenyl-1H-indol-7-yl)amino-piperidin-1-yl]-2-dimethylamino-ethanone], the concentration for a half-maximal effect (EC50) was found to be 210 nM.

Turning to `O=S1(=O)CCN(Cc2cc(NCC3CCNCC3)c3[nH]c(-c4ccccc4)cc3c2)CC1` [Example 96, [5-(1,1-Dioxo-thiomorpholin-4-yl)methyl-2-phenyl-1H-indol-7-yl]-(piperidin-4-yl)methyl-amine], the EC50 stood at 120 nM. With `O=C(C1CCCO1)N1CCC(Nc2cc(CN3CCS(=O)(=O)CC3)cc3cc(-c4ccccc4)[nH]c23)CC1` (stereo not drawn) [Example 98, {4-[5-(1,1-Dioxo-thiomorpholin-4-yl)methyl-2-phenyl-1H-indol-7-yl]amino-piperidin-1-yl}-(tetrahydrofuran-2-yl)-methanone] the figure was 110 nM; with `O=S1(=O)CCC(N2CCC(Nc3cc(F)cc4cc(-c5ccccc5)[nH]c34)CC2)CC1` [Example 99, (5-Fluoro-2-phenyl-1H-indol-7-yl)-[1-(1,1-dioxo-tetrahydrothiopyran-4-yl)-piperidin-4-yl]-amine], 200 nM. Regarding `CN(C)C1CCC(Nc2cc(Cl)cc3cc(-c4ccccc4)[nH]c23)CC1` (stereo not drawn) [Example 100, N-(5-chloro-2-phenyl-1H-indol-7-yl)-N′,N′-dimethyl-cyclohexane-1,4-diamine], the half-maximal effective concentration (EC50) came to 80 nM. For `CNC1CCC(Nc2cc(Cl)cc3cc(-c4ccccc4)[nH]c23)CC1` (stereo not drawn) [Example 101, N-(5-chloro-2-phenyl-1H-indol-7-yl)-N′-methyl-cyclohexane-1,4-diamine], the EC50 is 80 nM. On to `O=C(O)C1CCC(Nc2cc(Cl)cc3cc(-c4ccccc4)[nH]c23)CC1` (stereo not drawn) [Example 102, 4-(5-Chloro-2-phenyl-1H-indol-7-yl)amino-cyclohexane-1-carboxylic acid], for which the EC50 came to 300 nM.

For the origin of these results see patent publication US9000028B2, “Indole and indazole compounds as an inhibitor of cellular necrosis” (LG Life Sciences Ltd., priority 2007, dated 2015).
